Drawing on the supplement of paper PMC10307832, this text covers relative viability for five cell lines.

Common to all, as to experiment: relative viability (nuclei count vs DMSO), 5 days (fraction); higher = more cells survive
Compound in the assay “4EGI-1 + Bortezomib”: O=C(O)C(Cc1ccccc1[N+](=O)[O-])=NNc1nc(-c2ccc(Cl)c(Cl)c2)cs1 (mixture of isomers) [4EGI-1] + CC(C)C[C@H](NC(=O)[C@H](Cc1ccccc1)NC(=O)c1cnccn1)B(O)O [Bortezomib] (partner 0.002 µM)
The method in brief:
(§1)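 Relative viability is defined as nuclei in treated wells over nuclei in vehicle wells. Duplicate plates were run and medians reported. Lung cancer cell lines in 1536-well plates were dosed by pin tool one day after seeding, with one drug or with a fixed anchor-drug dose plus five library-drug doses (not always all listed) in √10 steps, and nuclei were counted after 5 days.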

Compound in the assay “XMD8-85 + Dasatinib”: CN1CCN(CC1)C2=CC(=C(C=C2)NC3=NC=C4C(=N3)N(C5=CC=CC=C5C(=O)N4C)C)OC [XMD8-85] + Cc1nc(Nc2ncc(C(=O)Nc3c(C)cccc3Cl)s2)cc(N2CCN(CCO)CC2)n1 [Dasatinib] (partner 0.075 µM)
The method in brief: as §1

Compound in the assay “4EGI-1 + Tozasertib”: O=C(O)C(Cc1ccccc1[N+](=O)[O-])=NNc1nc(-c2ccc(Cl)c(Cl)c2)cs1 (mixture of isomers) [4EGI-1] + Cc1cc(Nc2cc(N3CCN(C)CC3)nc(Sc3ccc(NC(=O)C4CC4)cc3)n2)n[nH]1 [Tozasertib] (partner 0.1 µM)
The gist of the method:
as §1

Compound in the assay “4EGI-1 + Pemetrexed”: O=C(O)C(Cc1ccccc1[N+](=O)[O-])=NNc1nc(-c2ccc(Cl)c(Cl)c2)cs1 (mixture of isomers) [4EGI-1] + Nc1nc2[nH]cc(CCc3ccc(C(=O)N[C@@H](CCC(=O)O)C(=O)O)cc3)c2c(=O)[nH]1 [Pemetrexed] (partner 0.2 µM)
The gist of the method:
as §1

On to H3255, for which the relative viability in the assay with 4EGI-1 + Bortezomib (first compound 0.5 µM) was 0.843; in the assay with 4EGI-1 + Bortezomib (first compound 1.581 µM), 0.663; with 4EGI-1 + Bortezomib (first compound 5 µM), 0.796; in the assay with 4EGI-1 + Bortezomib (first compound 15.81 µM), 0.576; in the assay with 4EGI-1 + Bortezomib (first compound 50 µM), 0.48; in the assay with XMD8-85 + Dasatinib (first compound 0.08 µM), 0.45. Further, the relative viability with XMD8-85 + Dasatinib (first compound 0.253 µM) amounted to 0.325; with XMD8-85 + Dasatinib (first compound 0.8 µM), 0.353; with XMD8-85 + Dasatinib (first compound 2.53 µM), 0.333; with XMD8-85 + Dasatinib (first compound 8 µM) it was 0.335; in the assay with 4EGI-1 + Tozasertib (first compound 0.5 µM) it was 0.789; with 4EGI-1 + Tozasertib (first compound 1.581 µM), 0.43. The relative viability amounted to 0.726 in the assay with 4EGI-1 + Tozasertib (first compound 5 µM); 0.571 in the assay with 4EGI-1 + Tozasertib (first compound 15.81 µM); 0.551 with 4EGI-1 + Tozasertib (first compound 50 µM); 0.598 in the assay with 4EGI-1 + Pemetrexed (first compound 0.5 µM); 0.574 in the assay with 4EGI-1 + Pemetrexed (first compound 1.581 µM); 0.524 with 4EGI-1 + Pemetrexed (first compound 5 µM). Moreover, the relative viability was found to be 0.453 with 4EGI-1 + Pemetrexed (first compound 15.81 µM) and 0.395 in the assay with 4EGI-1 + Pemetrexed (first compound 50 µM).
For the cell line NCI-H1975, the relative viability with 4EGI-1 + Bortezomib (first compound 0.5 µM) is 0.475; with 4EGI-1 + Bortezomib (first compound 1.581 µM), 0.393; with 4EGI-1 + Bortezomib (first compound 5 µM) it was 0.399; with 4EGI-1 + Bortezomib (first compound 15.81 µM) it was 0.36; in the assay with 4EGI-1 + Bortezomib (first compound 50 µM) it was 0.348; with XMD8-85 + Dasatinib (first compound 0.08 µM), 0.317. Also, the relative viability with XMD8-85 + Dasatinib (first compound 0.253 µM) was determined as 0.345; with XMD8-85 + Dasatinib (first compound 0.8 µM), 0.384; with XMD8-85 + Dasatinib (first compound 2.53 µM) it was 0.38; with XMD8-85 + Dasatinib (first compound 8 µM), 0.236; in the assay with 4EGI-1 + Tozasertib (first compound 0.5 µM), 0.773; with 4EGI-1 + Tozasertib (first compound 1.581 µM) it was 0.653. The relative viability in the assay with 4EGI-1 + Tozasertib (first compound 5 µM) is 0.785; with 4EGI-1 + Tozasertib (first compound 15.81 µM), 0.523; in the assay with 4EGI-1 + Tozasertib (first compound 50 µM), 0.179; in the assay with 4EGI-1 + Pemetrexed (first compound 0.5 µM), 0.298; with 4EGI-1 + Pemetrexed (first compound 1.581 µM), 0.274; in the assay with 4EGI-1 + Pemetrexed (first compound 5 µM), 0.287. In addition, the relative viability with 4EGI-1 + Pemetrexed (first compound 15.81 µM) worked out at 0.283; with 4EGI-1 + Pemetrexed (first compound 50 µM), 0.21.
Consider BEN, for which the relative viability with 4EGI-1 + Bortezomib (first compound 0.5 µM) is 0.848; with 4EGI-1 + Bortezomib (first compound 1.581 µM) it was 1.22; in the assay with 4EGI-1 + Bortezomib (first compound 5 µM), 0.903; with 4EGI-1 + Bortezomib (first compound 15.81 µM) it was 0.754; with 4EGI-1 + Bortezomib (first compound 50 µM) it was 0.604; in the assay with XMD8-85 + Dasatinib (first compound 0.08 µM), 0.322. Besides, the relative viability with XMD8-85 + Dasatinib (first compound 0.253 µM) amounted to 0.332; with XMD8-85 + Dasatinib (first compound 0.8 µM), 0.38; with XMD8-85 + Dasatinib (first compound 2.53 µM) it was 0.27; with XMD8-85 + Dasatinib (first compound 8 µM), 0.301; in the assay with 4EGI-1 + Tozasertib (first compound 0.5 µM) it was 0.631; with 4EGI-1 + Tozasertib (first compound 1.581 µM), 0.626. The relative viability with 4EGI-1 + Tozasertib (first compound 5 µM) is 0.53; with 4EGI-1 + Tozasertib (first compound 15.81 µM), 0.475; with 4EGI-1 + Tozasertib (first compound 50 µM) it was 0.461; with 4EGI-1 + Pemetrexed (first compound 0.5 µM), 0.814; with 4EGI-1 + Pemetrexed (first compound 1.581 µM) it was 0.785; with 4EGI-1 + Pemetrexed (first compound 5 µM), 0.772. Also, the results for the relative viability with 4EGI-1 + Pemetrexed (first compound 15.81 µM) and with 4EGI-1 + Pemetrexed (first compound 50 µM) were 0.622 and 0.432, respectively.
For LC-2-ad, the relative viability in the assay with 4EGI-1 + Bortezomib (first compound 0.5 µM) is 1.17; with 4EGI-1 + Bortezomib (first compound 1.581 µM) it was 0.877; with 4EGI-1 + Bortezomib (first compound 5 µM), 0.944; in the assay with 4EGI-1 + Bortezomib (first compound 15.81 µM), 0.444; with 4EGI-1 + Bortezomib (first compound 50 µM) it was 0.352; with XMD8-85 + Dasatinib (first compound 0.08 µM) it was 0.415. Besides, the relative viability with XMD8-85 + Dasatinib (first compound 0.253 µM) came to 0.319; in the assay with XMD8-85 + Dasatinib (first compound 0.8 µM) it was 0.482; with XMD8-85 + Dasatinib (first compound 2.53 µM), 0.345; with XMD8-85 + Dasatinib (first compound 8 µM), 0.237; in the assay with 4EGI-1 + Tozasertib (first compound 0.5 µM), 0.415; with 4EGI-1 + Tozasertib (first compound 5 µM) it was 0.483. Also, the relative viability with 4EGI-1 + Tozasertib (first compound 15.81 µM) turned out to be 0.347; with 4EGI-1 + Tozasertib (first compound 50 µM) it was 0.232; with 4EGI-1 + Pemetrexed (first compound 0.5 µM), 0.301; with 4EGI-1 + Pemetrexed (first compound 1.581 µM) it was 0.28; in the assay with 4EGI-1 + Pemetrexed (first compound 5 µM), 0.287; in the assay with 4EGI-1 + Pemetrexed (first compound 15.81 µM), 0.258. Besides, the relative viability with 4EGI-1 + Pemetrexed (first compound 50 µM) stood at 0.257.
As to NCI-H2085, the relative viability worked out at 1.14 with 4EGI-1 + Bortezomib (first compound 0.5 µM); 1.04 with 4EGI-1 + Bortezomib (first compound 1.581 µM); 1.16 with 4EGI-1 + Bortezomib (first compound 5 µM); 0.964 with 4EGI-1 + Bortezomib (first compound 15.81 µM); 0.517 with 4EGI-1 + Bortezomib (first compound 50 µM); 0.275 in the assay with XMD8-85 + Dasatinib (first compound 0.08 µM). Besides, the relative viability was determined as 0.265 with XMD8-85 + Dasatinib (first compound 0.253 µM); 0.235 with XMD8-85 + Dasatinib (first compound 0.8 µM); 0.203 with XMD8-85 + Dasatinib (first compound 2.53 µM); 0.197 with XMD8-85 + Dasatinib (first compound 8 µM); 0.835 with 4EGI-1 + Tozasertib (first compound 0.5 µM); 0.859 with 4EGI-1 + Tozasertib (first compound 1.581 µM). The relative viability in the assay with 4EGI-1 + Tozasertib (first compound 5 µM) came to 0.836; with 4EGI-1 + Tozasertib (first compound 15.81 µM) it was 0.724; with 4EGI-1 + Tozasertib (first compound 50 µM), 0.775; with 4EGI-1 + Pemetrexed (first compound 0.5 µM) it was 0.979; in the assay with 4EGI-1 + Pemetrexed (first compound 1.581 µM), 0.954; with 4EGI-1 + Pemetrexed (first compound 5 µM) it was 0.915. Moreover, the relative viability with 4EGI-1 + Pemetrexed (first compound 15.81 µM) was found to be 0.646; with 4EGI-1 + Pemetrexed (first compound 50 µM), 0.621.
